Columns and labels:
[1] = system: HL-60(TB); assay: NCI-60 SRB screen: leukemia HL-60(TB); assay type: cell-based; settings: Homo sapiens, 48 h, HL-60(TB)
[2] = system: SR; assay: NCI-60 SRB screen: leukemia SR; assay type: cell-based; settings: Homo sapiens, 48 h
[3] = system: A549/ATCC; assay: NCI-60 SRB screen: non-small cell lung cancer A549/ATCC; assay type: cell-based, human; settings: A549/ATCC
[4] = system: NCI-H322M; assay: NCI-60 SRB screen: non-small cell lung cancer NCI-H322M; assay type: cell-based, human
[5] = system: NCI-H460; assay: NCI-60 SRB screen: non-small cell lung cancer NCI-H460; assay type: cell-based; settings: Homo sapiens, 48 h, NCI-H460
[6] = system: COLO 205; assay: NCI-60 SRB screen: colon cancer COLO 205; assay type: cell-based, human; settings: COLO 205
[7] = system: HCT-15; assay: NCI-60 SRB screen: colon cancer HCT-15; assay type: cell-based, human; settings: HCT-15
[8] = system: HT29; assay: NCI-60 SRB screen: colon cancer HT29; assay type: cell-based; settings: Homo sapiens, HT29
[9] = system: KM12; assay: NCI-60 SRB screen: colon cancer KM12; assay type: cell-based, human; settings: KM12
[10] = system: SF-268; assay: NCI-60 SRB screen: CNS cancer SF-268; assay type: cell-based, human; settings: SF-268
[11] = system: SF-295; assay: NCI-60 SRB screen: CNS cancer SF-295; assay type: cell-based, human; settings: SF-295
[12] = system: SF-539; assay: NCI-60 SRB screen: CNS cancer SF-539; assay type: cell-based, human; settings: SF-539
[13] = system: SNB-19; assay: NCI-60 SRB screen: CNS cancer SNB-19; assay type: cell-based, human; settings: SNB-19
[14] = system: LOX IMVI; assay: NCI-60 SRB screen: melanoma LOX IMVI; assay type: cell-based, human
[15] = system: MALME-3M; assay: NCI-60 SRB screen: melanoma MALME-3M; assay type: cell-based, human; settings: MALME-3M
[16] = system: M14; assay: NCI-60 SRB screen: melanoma M14; assay type: cell-based, human; settings: M14
[17] = system: SK-MEL-2; assay: NCI-60 SRB screen: melanoma SK-MEL-2; assay type: cell-based, human; settings: SK-MEL-2
[18] = system: UACC-257; assay: NCI-60 SRB screen: melanoma UACC-257; assay type: cell-based, human; settings: UACC-257
[19] = system: UACC-62; assay: NCI-60 SRB screen: melanoma UACC-62; assay type: cell-based, human; settings: UACC-62
[20] = system: IGROV1; assay: NCI-60 SRB screen: ovarian cancer IGROV1; assay type: cell-based, human; settings: IGROV1
[21] = system: OVCAR-8; assay: NCI-60 SRB screen: ovarian cancer OVCAR-8; assay type: cell-based, human; settings: OVCAR-8
[22] = system: SK-OV-3; assay: NCI-60 SRB screen: ovarian cancer SK-OV-3; assay type: cell-based, human; settings: SK-OV-3
[23] = system: ACHN; assay: NCI-60 SRB screen: renal cancer ACHN; assay type: cell-based, human
[24] = system: CAKI-1; assay: NCI-60 SRB screen: renal cancer CAKI-1; assay type: cell-based, human; settings: CAKI-1
[25] = system: RXF 393; assay: NCI-60 SRB screen: renal cancer RXF 393; assay type: cell-based, human; settings: RXF 393
[26] = system: TK-10; assay: NCI-60 SRB screen: renal cancer TK-10; assay type: cell-based, human; settings: TK-10
[27] = system: UO-31; assay: NCI-60 SRB screen: renal cancer UO-31; assay type: cell-based, human; settings: UO-31
[28] = system: MCF7; assay: NCI-60 SRB screen: breast cancer MCF7; assay type: cell-based; settings: Homo sapiens, 48 h, MCF7
[29] = system: HS 578T; assay: NCI-60 SRB screen: breast cancer HS 578T; assay type: cell-based, human; settings: HS 578T
[30] = system: BT-549; assay: NCI-60 SRB screen: breast cancer BT-549; assay type: cell-based, human; settings: BT-549
[31] = system: MDA-MB-468; assay: NCI-60 SRB screen: breast cancer MDA-MB-468; assay type: cell-based, human
[32] = system: 60 human tumor cell lines; settings: single dose 10 µM
[33] = system: CNS cancer subpanel; assay: NCI-60 screen, subpanel CNS cancer
[34] = system: NSCL cancer subpanel; assay: NCI-60 screen, subpanel NSCL cancer
[35] = system: Colon Cancer subpanel; assay: NCI-60 screen, subpanel Colon Cancer
[36] = system: Renal Cancer subpanel; assay: NCI-60 screen, subpanel Renal Cancer
[37] = system: Breast cancer subpanel; assay: NCI-60 screen, subpanel Breast cancer
[38] = single dose 10 µM, read-out: Percentage Cell Growth
[39] = five concentrations, SRB, read-out: GI50
[40] = Homo sapiens, five concentrations, 48 h, SRB, read-out: GI50

SMILES: C=C(C)[C@@H]1CC[C@]2(C(=O)NCCCN)CC[C@]3(C)[C@H](CC[C@@H]4[C@@]5(C)CCC(=O)C(C)(C)[C@@H]5CC[C@]43C)[C@@H]12 [Compound 10]
- activity at 10 µM [1, 38]: 1.25%
- GI50 [1, 39]: 16.5 µM
- activity at 10 µM [2, 38]: 23.7%
- GI50 [2, 39]: 9.05 µM
- Percentage Cell Growth ([3]; single dose 10 µM): −4.70%
- GI50 [3, 40]: 19.6 µM
- GI50 [4, 40]: 17.6 µM
- Percentage Cell Growth ([4]; single dose 10 µM): −68.83%
- activity at 10 µM [5, 38]: -43.2%
- GI50 [5, 39]: 14 µM
- Percentage Cell Growth ([6]; single dose 10 µM): 7.82%
- GI50 [6, 40]: 21 µM
- Percentage Cell Growth ([7]; single dose 10 µM): −22.06%
- GI50 [7, 40]: 21.7 µM
- activity at 10 µM ([8]; HT-29, 48 h, single dose 10 µM, read-out: Percentage Cell Growth): 3.9%
- GI50 ([8]; HT-29, five concentrations, 48 h, SRB, read-out: GI50): 6.95 µM
- GI50 [9, 40]: 17.3 µM
- Percentage Cell Growth ([9]; single dose 10 µM): −25.31%
- GI50 [10, 40]: 23 µM
- Percentage Cell Growth ([10]; single dose 10 µM): −16.88%
- GI50 [11, 40]: 22.6 µM
- Percentage Cell Growth ([11]; single dose 10 µM): −26.39%
- GI50 [12, 40]: 17.9 µM
- Percentage Cell Growth ([12]; single dose 10 µM): −36.20%
- GI50 [13, 40]: 24.7 µM
- Percentage Cell Growth ([13]; single dose 10 µM): −29.49%
- GI50 [14, 40]: 25.5 µM
- Percentage Cell Growth ([14]; single dose 10 µM): 1.37%
- GI50 [15, 40]: 23.3 µM
- Percentage Cell Growth ([15]; single dose 10 µM): −18.76%
- GI50 [16, 40]: 24.7 µM
- Percentage Cell Growth ([16]; single dose 10 µM): 5.07%
- GI50 [17, 40]: 27.3 µM
- Percentage Cell Growth ([17]; single dose 10 µM): −24.21%
- GI50 [18, 40]: 20.6 µM
- Percentage Cell Growth ([18]; single dose 10 µM): −46.67%
- GI50 [19, 40]: 27.4 µM
- Percentage Cell Growth ([19]; single dose 10 µM): −22.62%
- GI50 ([20]; Homo sapiens, IGROV-1, five concentrations, 48 h, SRB, read-out: GI50): 21.5 µM
- Percentage Cell Growth ([20]; single dose 10 µM): −6.94%
- GI50 [21, 40]: 27.7 µM
- Percentage Cell Growth ([21]; single dose 10 µM): −3.81%
- GI50 [22, 40]: 17.7 µM
- Percentage Cell Growth ([22]; single dose 10 µM): −27.22%
- GI50 [23, 40]: 21.7 µM
- Percentage Cell Growth ([23]; single dose 10 µM): −49.24%
- Percentage Cell Growth ([24]; single dose 10 µM): −54.52%
- GI50 [24, 40]: 21.9 µM
- GI50 [25, 40]: 17.1 µM
- Percentage Cell Growth ([25]; single dose 10 µM): −42.28%
- GI50 [26, 40]: 23.9 µM
- Percentage Cell Growth ([26]; single dose 10 µM): −32.23%
- GI50 [27, 40]: 38.9 µM
- Percentage Cell Growth ([27]; single dose 10 µM): −34.32%
- activity at 10 µM [28, 38]: -8.46%
- GI50 [28, 39]: 10.7 µM
- Percentage Cell Growth ([29]; single dose 10 µM): −4.98%
- GI50 [29, 40]: 40.5 µM
- Percentage Cell Growth ([30]; single dose 10 µM): −2.14%
- GI50 [30, 40]: 23.8 µM
- GI50 [31, 40]: 12.6 µM
- Percentage Cell Growth ([31]; single dose 10 µM): −19.87%
- cancer cell lethality, range of percentage growth ([32]; cell lines with negative growth): −2.14% to −100%
- cases of cancer cell lethality ([32]; number of cell lines): 48
- MID b, average sensitivity of all cell line of particular subpanel [33]: 23.00 µM
- Selectivity, ratio MID a: MID b [33]: 0.89
- MID b, average sensitivity of all cell line of particular subpanel [34]: 18.71 µM
- Selectivity, ratio MID a: MID b [34]: 1.09
- MID b, average sensitivity of all cell line of particular subpanel [35]: 17.82 µM
- Selectivity, ratio MID a: MID b [35]: 1.15
- MID b, average sensitivity of all cell line of particular subpanel [36]: 23.80 µM
- Selectivity, ratio MID a: MID b [36]: 0.86
- MID b, average sensitivity of all cell line of particular subpanel [37]: 20.30 µM
- Selectivity, ratio MID a: MID b [37]: 1.01

Source: article PMC7587962, “Evaluation of Cytotoxicity and α-Glucosidase Inhibitory Activity of Amide and Polyamino-Derivatives of Lupane Triterpenoids” (Molecules, 2020)
